Reference: publication PMC6412019, “Discovery of NV-5138, the first selective Brain mTORC1 activator” (Scientific Reports, 2019)

Assays:
[1] = biological target: T1, Sestrin2/GATOR2 interaction (Homo sapiens, UniProt P58004); assay: Cell-free Sesn2/WDR24 (GATOR2) interaction assay on immunoprecipitates; assay type: biochemical; details: added to immunoprecipitated complexes from amino acid-starved cells for 10 min
T1 construct: expressed in transfected cells; host or cells: HEK-293T stably expressing Flag-WDR24; Sestrin2 and the other GATOR2 subunits endogenous
T1 sequence (P58004 1-480): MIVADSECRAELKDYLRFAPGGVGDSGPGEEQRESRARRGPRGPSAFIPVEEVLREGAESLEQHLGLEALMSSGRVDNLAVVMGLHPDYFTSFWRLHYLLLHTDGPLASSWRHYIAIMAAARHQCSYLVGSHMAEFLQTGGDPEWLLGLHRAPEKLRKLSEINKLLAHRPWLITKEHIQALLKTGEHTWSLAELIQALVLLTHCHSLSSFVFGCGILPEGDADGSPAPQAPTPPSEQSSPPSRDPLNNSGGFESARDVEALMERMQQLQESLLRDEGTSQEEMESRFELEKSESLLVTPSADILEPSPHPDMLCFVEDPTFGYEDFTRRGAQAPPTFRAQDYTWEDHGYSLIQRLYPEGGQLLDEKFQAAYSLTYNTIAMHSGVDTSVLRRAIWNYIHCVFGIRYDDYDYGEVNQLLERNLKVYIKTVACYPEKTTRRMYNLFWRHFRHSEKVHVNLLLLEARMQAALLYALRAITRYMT
Experimental: (§1) Expression of flag-WDR24 allows for immunoprecipitation of the Sestrin2/GATOR2 complex from amino acid-starved cells with an anti-flag antibody. […] Finally, to determine whether Sestrins and the GATOR pathway are required for NV-5138 activity, HEK-293T cells null for all three Sestrin isoforms or the GATOR1 component Nprl3 were obtained.
(§2) Cell lysates were prepared as previously described. Lysates were cleared by centrifugation at 13,200 rpm at 4 °C for 8 min. For anti-FLAG IPs, the FLAG-M2 affinity gel was added to approximately 2 mg of lysates and incubated with rotation for 3 h at 4 °C. Following IP, the beads were washed one time with Triton wash buffer containing 500 mM NaCl. […] After compound incubation, IPs were collected by centrifugation. Immunoprecipitated proteins were denatured and, resolved by SDS-PAGE. Membranes were imaged using the LI-COR imaging system. Reagents and antibodies used are listed in Supplementary Information.

[2] = tested on: panel of 107 adverse drug effect targets; assay: Eurofins/Cerep off-target selectivity panel; details: up to 300 µM; threshold >50% binding/response; incl. AMPA, kainate and NMDA receptor isoforms
Experimental: (§3) While mTORC1 activation by NV-5138 appears dependent upon an intact Sestrins/GATOR2 pathway and not upon protein incorporation or transamination by BCAT, NV-5138 was tested for off-target activity in the Eurofins/Cerep panel of over 100 potential targets. The selectivity panel included AMPA, kainate and NMDA receptor isoforms (Supplementary Table 2a–c). […] As observed in the Eurofins/Cerep panel, there was no effect of NV-5138 at 300 µM final concentration (data not shown).
NV-5138 was tested in duplicate at a concentration of 300 µM for potential interaction with a panel of 107 adverse drug effect targets including 21 transporters, receptors, ion channels and enzymes expressed in the CNS (Eurofins Pharma Discovery Services). The threshold to exclude a significant interaction was set as a binding/response of >50%.

[3] = tested on: Synapsin1, GluR1 and PSD95; assay: Synaptic proteins in rat prefrontal cortex synaptoneurosomes (immunoblot); assay type: in vivo; details: 24 h after single 160 mg/kg PO
Experimental: We investigated the activation of mTORC1 in the brain further by determining the time course of mTORC1 activation following a single administration of NV-5138. […] The decrease in mTORC1 signaling in the NV-5138 treated group 24 h following administration while significant was not consistently observed. […] It should be noted that while the activation of mTORC1 in the prefrontal cortex correlated with compound exposure, the increased expression of synaptic proteins was observed well after compound levels have dropped and mTORC1 activity was back to baseline/vehicle levels.
After compound administration, animals were sacrificed by decapitation using a guillotine, immediately Specific regions of the brain were quickly microdissected, tissues collected, and flash frozen in liquid nitrogen. Peripheral tissues and all brain were homogenized using MP homogenizer in Lysis Buffer (Cell lysis buffer: 1% Triton X-100, 50 mM HEPES pH 7.4, 100 mM NaCl, 2 mM EDTA, 10 mM Beta-glycerophosphate, 10 mM Sodium pyrophosphate, and 1 protease inhibitor) at 4 °C. Synaptic proteins and mTORC1 analyses in each brain region were conducted on crude synaptoneurosome preparations as previously described. Equal amounts of total protein from each sample were denatured and, resolved by SDS-PAGE. Membranes were imaged using the LI-COR imaging system. […]

[4] = biological target: T1, Sestrin2/GATOR2 interaction; assay: Sestrin2/GATOR2 interaction in intact flag-WDR24 HEK-293T cells; assay type: cell-based; details: leucine-starved 50 min, compound 10 min
Experimental: as §1
All cell lines were cultured in DMEM supplemented with 10% FBS and maintained at 37 °C and 5% CO2. HEK-293T cells stably expressing Flag-WDR24 was generated as previously described. […] Details of reagent used for cell culture can be found in Supplementary Information.
as §2

[5] = tested on: NMDA receptors expressed in Xenopus laevis oocytes; assay: Two electrode voltage-clamp electrophysiology of NMDA receptors in oocytes; assay type: cell-based; details: 300 µM final concentration; data not shown
Experimental: as §3

[6] = Pharmacokinetic analysis in rats; assay type: in vivo, rat
Experimental: To determine oral bioavailability, male SD rats were dosed I.V at 1 mg/kg and PO at 5 mg/kg with NV-5138 in 0.5% MC/0. 1% Tween80 (n = 3 per time point per group). Rats were fasted overnight for PO group and were given free access to food and water for IV group. After dosing, tail-vein blood was collected at the indicated time points into K2EDTA tubes and centrifuged at 2,000 g for 5 min to collect plasma. To measure levels of NV-5138 in the brain and plasma, rats were dosed PO at 160 mg/kg (n = 5), sacrificed 1 h after dosing via decapitation and trunk blood and one hemisphere of the brain was collected. Plasma was combined with acetonitrile containing pregabalin as an internal standard and centrifuged, brain and heart samples were homogenized directly into acetonitrile. Levels of NV-5138 were quantified via LC-MS/MS. WinNonlin V 6.2 statistics software (Pharsight Corporation, California, USA) was used to generate pharmacokinetics parameters using non-compartmental model.

[7] = cited from earlier work

| SMILES | disruption of Sestrin2/GATOR2 interaction, cell-free [1] | off-target activity in selectivity panel [2] | synaptic proteins Synapsin1, GluR1 and PSD95 versus vehicle [3] | disruption of GATOR2-bound Sestrin2 in intact cells [4] | functional inhibition of maximally-activated NMDA receptors [5] | bioavailability ([6]; male, SD, rat, plasma, oral, 5 mg/kg, male SD rats, IV 1 mg/kg and PO 5 mg/kg) [%] | half-life ([6]; male, SD, rat, plasma, other: intravenous and oral, rats, intravenous and oral dosing, read-out: elimination half-life in plasma (converted)) [h] | brain versus plasma exposure ([6]; rats, 160 mg/kg PO, 160 mg/kg) | cerebrospinal fluid (CSF) levels as fraction of plasma concentrations [7] |
| --- | --- | --- | --- | --- | --- | --- | --- | --- | --- |
| CC(C)(C[C@H](N)C(=O)O)C(F)F [NV-5138, (S)-2-amino-5,5-difluoro-4,4-dimethylpentanoic acid] | rapidly disrupts the Sestrin2/GATOR2 interaction in a dose-dependent manner | no activity against any target | significant increase | resulted in disruption of GATOR2-bound Sestrin2 | no effect | 100 | ~3 | brain and plasma concentrations of NV-5138 are equal |  |
| CC(C)C[C@H](N)C(=O)O [Leucine, L-leucine, reference compound] |  |  |  |  |  |  |  |  | 5–10% |
